Reference: ChEMBL document CHEMBL1147399, “Two new sesquiterpene lactones from Ceiba pentandra” (1993)
≈ marks a conversion by molar mass, not a printed value.

Experiments:
Format in all cases: functional
[1] = system: Escherichia coli; assay: Antibacterial activity against Escherichia coli ATCC 10536
[2] = system: Aspergillus niger; assay: Antifungal activity against Aspergillus niger NRRL 530
[3] = system: Bacillus subtilis; assay: Antibacterial activity against Bacillus subtilis ATCC 6633
[4] = system: Staphylococcus aureus; assay: Antibacterial activity against Staphylococcus aureus ATCC 6538
[5] = system: Klebsiella pneumoniae; assay: Antibacterial activity against Klebsiella pneumoniae ATCC 13883
[6] = system: Candida albicans; assay: Antifungal activity against Candida albicans ATCC 10231

MIC [1] [µg/mL] | MIC [2] [µg/mL] | MIC [3] [µg/mL] | MIC [4] [µg/mL] | MIC [5] [µg/mL] | MIC [6] [µg/mL] | SMILES
> 1000 | 250 (≈ 918 µM) | 350 (≈ 1290 µM) | 300 (≈ 1100 µM) | > 1000 | 225 (≈ 826 µM) | COc1cc(C(C)C)c2cc(C)c(O)c3c2c1C(=O)O3
> 1000 | 200 (≈ 699 µM) | 250 (≈ 873 µM) | 275 (≈ 960 µM) | > 1000 | 175 (≈ 611 µM) | COc1cc(C(C)C)c2cc(C)c(OC)c3c2c1C(=O)O3
